# In ChEMBL document CHEMBL1127356, “(Fluorocyclopropyl)quinolones. 2. Synthesis and Stereochemical structure-activity relationships of chiral 7-(7-amino-5-azaspiro[2.4]heptan-5-yl)-1-(2-fluorocyclopropyl)quinolone antibacterial agents” (J Med Chem, 1994):
# How the values were obtained:
# [1] = Maximum concentration in plasma was determined by oral administration to rats at 20 mg/kg; type: ADME, organism-based; set-up: dose 20 mg/kg, route oral; conditions: rat
# Rattus norvegicus = assay: Urinary recovery by oral administration to rats in conjugate form of compound at 20 mg/kg; type: ADME, organism-based, Urine; set-up: dose 20 mg/kg, route oral; conditions: in vivo
# [2] = Urinary recovery by oral administration to rats in unchanged form of compound at 20 mg/kg; type: ADME, organism-based; set-up: dose 20 mg/kg, route oral; conditions: rat, urine, read-out: Urinary recovery
# Enterobacter cloacae = assay: Minimum inhibitory concentration in vitro against Enterobacter cloacae (03400); type: functional
# Escherichia coli = assay: Minimum inhibitory concentration in vitro against Escherichia coli (NIHJ); type: functional
# Klebsiella pneumoniae = assay: Minimum inhibitory concentration in vitro against Klebsiella pneumoniae (type-2); type: functional
# Pseudomonas aeruginosa = assay: Minimum inhibitory concentration in vitro against Pseudomonas aeruginosa (32104); type: functional
# Proteus vulgaris = assay: Minimum inhibitory concentration in vitro against Proteus vulgaris (08601); type: functional
# Staphylococcus aureus [3] = assay: Minimum inhibitory concentration in vitro against […] (209P); type: functional
# Streptococcus pyogenes = assay: Minimum inhibitory concentration in vitro against Streptococcus pyogenes (G36); type: functional
# [4] = tested on: Staphylococcus epidermidis; assay: Minimum inhibitory concentration in vitro against […] (56556); type: functional
# Serratia marcescens = assay: Minimum inhibitory concentration in vitro against […]; type: functional; conditions: Serratia marcescens; read-out: MIC
# Enterococcus faecalis = assay: Minimum inhibitory concentration in vitro against Streptococcus faecalis (ATCC 19433); type: functional
# Staphylococcus aureus [5] = assay: microbe, parasite or virus in culture
# Description: Minimum inhibitory concentration against Streptococcus aureus (209P)
# [6] = Enterobacter cloacae, read-out: MIC
# [7] = Escherichia coli, read-out: MIC
# [8] = Klebsiella pneumoniae, read-out: MIC
# [9] = Pseudomonas aeruginosa, read-out: MIC
# [10] = Proteus vulgaris, read-out: MIC
# [11] = Staphylococcus aureus, read-out: MIC
# [12] = Streptococcus pyogenes, read-out: MIC
# [13] = Staphylococcus epidermidis, read-out: MIC
# [14] = Enterococcus faecalis, ATCC 19433, read-out: MIC
SMILES,MIC (Enterobacter cloacae; [6]),MIC (Escherichia coli; [7]),MIC (Klebsiella pneumoniae; [8]),MIC (Pseudomonas aeruginosa; [9]),MIC (Proteus vulgaris; [10]),MIC (Staphylococcus aureus [3]; [11]),MIC (Streptococcus pyogenes; [12]),"MIC [4, 13]",MIC (Serratia marcescens),MIC (Enterococcus faecalis; [14]),further results
"NC1CN(c2c(F)cc3c(=O)c(C(=O)O)cn([C@@H]4C[C@@H]4F)c3c2Cl)CC12CC2 (single isomer, unassigned) [SITAFLOXACIN ANHYDROUS]",0.006 µg/mL,< 0.006 µg/mL,0.025 µg/mL,0.05 µg/mL,0.006 µg/mL,0.013 µg/mL,0.05 µg/mL,0.025 µg/mL,0.025 µg/mL,0.1 µg/mL,Cmax [1]: 2600 ng/mL; Urinary recovery (Rattus norvegicus): 1%; dose excreted [2]: 22%
N[C@@H]1CN(c2c(F)cc3c(=O)c(C(=O)O)cn(C4CC4)c3c2Cl)CC12CC2,0.05 µg/mL,0.05 µg/mL,0.05 µg/mL,0.39 µg/mL,0.05 µg/mL,0.1 µg/mL,0.78 µg/mL,0.1 µg/mL,0.1 µg/mL,0.39 µg/mL,–
"N[C@H]1CN(c2c(F)cc3c(=O)c(C(=O)O)cn(C4C[C@@H]4F)c3c2Cl)CC12CC2 (single isomer, unassigned)",0.025 µg/mL,0.025 µg/mL,0.05 µg/mL,0.39 µg/mL,0.025 µg/mL,0.1 µg/mL,0.1 µg/mL,0.1 µg/mL,0.1 µg/mL,0.78 µg/mL,–
"N[C@H]1CN(c2c(F)cc3c(=O)c(C(=O)O)cn(C4C[C@H]4F)c3c2Cl)CC12CC2 (single isomer, unassigned)",0.05 µg/mL,0.05 µg/mL,0.1 µg/mL,0.78 µg/mL,0.05 µg/mL,0.1 µg/mL,0.2 µg/mL,0.2 µg/mL,0.5 µg/mL,0.39 µg/mL,–
O=C(O)c1cn(C2CC2)c2cc(N3CCNCC3)c(F)cc2c1=O [CIPROFLOXACIN],–,–,0.05 µg/mL,0.1 µg/mL,0.013 µg/mL,–,1.56 µg/mL,0.2 µg/mL,0.05 µg/mL,1.56 µg/mL,MIC (Staphylococcus aureus [5]): 0.1 µg/mL
N[C@H]1CCN(c2c(F)cc3c(=O)c(C(=O)O)cn([C@H]4C[C@H]4F)c3c2Cl)C1,0.025 µg/mL,0.013 µg/mL,–,0.1 µg/mL,0.013 µg/mL,0.025 µg/mL,0.2 µg/mL,0.05 µg/mL,0.05 µg/mL,0.2 µg/mL,MIC (Klebsiella pneumoniae): 0.05 µg/mL
N[C@@H]1CN(c2c(F)cc3c(=O)c(C(=O)O)cn(C4CC4F)c3c2Cl)CC12CC2 (stereo in doubt; 38),–,–,–,–,–,–,–,–,0.2 µg/mL,–,MIC (Enterobacter cloacae): 0.2 µg/mL; MIC (Escherichia coli): 0.05 µg/mL; MIC (Klebsiella pneumoniae): 0.2 µg/mL; MIC (Pseudomonas aeruginosa): 1.56 µg/mL; MIC (Proteus vulgaris): 0.1 µg/mL; MIC (Staphylococcus aureus [3]): 0.78 µg/mL; MIC (Streptococcus pyogenes): 3.13 µg/mL; MIC [4]: 0.78 µg/mL; MIC (Enterococcus faecalis): 3.13 µg/mL
